In brackets after ≈: the same amount, converted by molar mass. Structures can show the parent of a compound that is named as a salt.
Key:
[1] = test system: Escherichia coli (ATCC25922); experiment: MIC, broth microdilution (CLSI), Escherichia coli; conditions: Escherichia coli, ATCC25922, read-out: E. coli ATCC 25922 MIC, Table XIII
[2] = test system: E. coli RNase P RNA, M1 RNA; experiment: Inhibition of bacterial RNase P activity, IC50 determination (cleavage of pATSerUG by M1 RNA); type: biochemical; conditions: NI: No inhibition
[3] = test system: Staphylococcus aureus (ATCC25923); experiment: MIC, broth microdilution (CLSI), Staphylococcus aureus ATCC25923; conditions: Staphylococcus aureus, ATCC25923, read-out: S. aureus ATCC 25923 MIC
Method: Initial minimal inhibitory concentration (MIC) tests were made on two bacterial strains: • Escherichia coli (ATCC25922) • Staphylococcus aureus (ATCC25923).
MIC values were determined using the standard broth microdilution procedure based on the guidelines by the Clinical and Laboratory Standards Institute (CLSI). Briefly, the compounds were dissolved in DMSO to 10 mM. They were diluted in cation-adjusted Mueller-Hinton broth (CAMHB) to four times the highest concentration tested. A serial two-fold dilution in CAMHB was done in microdilution plates. The inoculum of bacterial strain to be tested was prepared by making a suspension of colonies from an 18 to 24 hours old plate in CAMHB. The inoculum was diluted so that, after inoculation, each well contained approximately 5×10^5 CFU/mL. To a volume of 50 μl compound in CA 3 an equal volume of inoculum was added. The tray was sealed in a plastic bag and incubated at 35° C. for 16 to 20 hours. To aid in the detection of growth the dye resazurin was added to a final concentration 0.001% and incubated at room temperature for 1 h. Reduction of resazurin, and therefore bacterial growth, was seen as a change from blue to pink.

Cc1cc(F)cc(C(CC(=O)NC2CCC(N)CC2)c2cn(CC3CCCCC3)c3ccccc23)c1.Cl [Compound 150, N-((1S,4S)-4-aminocyclohexyl)-3-(1-(cyclohexylmethyl)-1H-indol-3-yl)-3-(3-fluoro-5-methylphenyl) propanamide hydrochloride salt]
MIC [1]: 512 µg/mL | IC50 [2]: 64 µM | MIC [3]: 8 µg/mL

Cc1cccc(C(CC(=O)NC2CCC(N)CC2)c2cn(CC3CCCCC3)c3ccc(C#N)cc23)c1.Cl [Compound 236, N-((1S,4S)-4-aminocyclohexyl)-3-(5-cyano-1-(cyclohexylmethyl)-1H-indol-3-yl)-3-(m-tolyl)propanamide hydrochloride salt]
MIC [1]: 68 µg/mL | IC50 [2]: 20 µM | MIC [3]: 9 µg/mL

NC1CCC(NC(=O)CC(c2cnc3ccccc3c2)c2cn(CC3CCCCC3)c3ccccc23)CC1 [Compound 142, N-((1S,4S)-4-aminocyclohexyl)-3-(1-(cyclohexylmethyl)-1H-indol-3-yl)-3-(quinolin-3-yl)propanamide hydrochloride salt]
MIC [1]: 32 µg/mL | IC50 [2]: 44 µM | MIC [3]: 8 µg/mL

Cc1cccc(C(CCN[C@H]2CC[C@H](O)CC2)c2cn(CC3CCCCC3)c3ccccc23)c1.Cl (stereo partly drawn) [Compound 218, (1R,4R)-4-((3-(1-(cyclohexylmethyl)-1H-indol-3-yl)-3-(m-tolyl)propyl)amino) cyclohexan-1-ol hydrochloride salt]
MIC [1]: > 512 µg/mL | IC50 [2]: 45 µM | MIC [3]: 8 µg/mL

Cl.N[C@H]1CC[C@H](NC(=O)CCc2cn(Cc3ccccc3)c3ccccc23)CC1 [Compound 100, N-((1R,4R)-4-aminocyclohexyl)-3-(1-benzyl-1H-indol-3-yl)propanamide hydrochloride salt]
MIC [1]: > 512 µg/mL | IC50 [2]: 486 µM | MIC [3]: 256 µg/mL

Cc1cccc(C(CC(=O)N2CCC(CN)CC2)c2cn(CC3CCCCC3)c3ccccc23)c1.Cl (stereo not drawn) [Compound 167, 1-(4-(aminomethyl)piperidin-1-yl)-3-(1-(cyclohexylmethyl)-1H-indol-3-yl)-3-(m-tolyl)propan-1-one hydrochloride salt]
MIC [1]: 65 µg/mL | IC50 [2]: 14 µM | MIC [3]: 8 µg/mL

Cc1cccc(C(CCNC[C@H]2CC[C@H](CN)CC2)c2cn(CC3CCCCC3)c3ccccc23)c1 (stereo partly drawn) [Compound 177, N-(((1R,4R)-4-(aminomethyl)cyclohexyl)methyl)-3-(1-(cyclohexylmethyl)-1H-indol-3-yl)-3-(m-tolyl)propan-1-amine hydrochloride salt]
MIC [1]: 18 µg/mL | IC50 [2]: 15 µM | MIC [3]: 9 µg/mL

Cc1cccc(C(CCNC2CCNCC2)c2cn(CC3CCOCC3)c3ccccc23)c1 (stereo not drawn) [Compound 292, N-(3-(1-((tetrahydro-2H-pyran-4-yl)methyl)-1H-indol-3-yl)-3-(m-tolyl)propyl)piperidin-4-amine hydrochloride salt]
MIC [1]: 66 µg/mL | IC50 [2]: 130 µM | MIC [3]: 33 µg/mL

Cc1cccc(C(CC(=O)NC2CCC(N)CC2)c2cn(CC3CCCCC3)c3ccc(-c4ccccc4C)cc23)c1.Cl [Compound 221, N-((1S,4S)-4-aminocyclohexyl)-3-(1 - (cyclohexylmethyl)-5-(o-tolyl)-1H-indol-3-yl)-3-(m-tolyl)propanamide hydrochloride salt]
MIC [1]: > 512 µg/mL | IC50 [2]: 3.4 µM | MIC [3]: 38 µg/mL

Cl.N[C@H]1CC[C@H](NC(=O)CC(c2cccc(C(F)(F)F)c2)c2cn(CC3CCCCC3)c3ccccc23)CC1 (stereo partly drawn) [Compound 129, N-((1R,4R)-4-aminocyclohexyl)-3-(1-(cyclohexylmethyl)-1H-indol-3-yl)-3-(3-(trifluoromethyl)phenyl) propanamide hydrochloride salt]
MIC [1]: > 512 µg/mL | IC50 [2]: 13 µM | MIC [3]: 4 µg/mL

Cc1cccc(C(CC(=O)N[C@H]2CC[C@H](N)CC2)c2cn(CC3CCCC3)c3ccccc23)c1.Cl (stereo partly drawn) [Compound 111, N-((1R,4R)-4-aminocyclohexyl)-3-(1-(cyclopentylmethyl)-1H-indol-3-yl)-3-(m-tolyl)propanamide hydrochloride salt]
MIC [1]: 32 µg/mL | IC50 [2]: 6.8 µM | MIC [3]: 4 µg/mL

Cl.N[C@H]1CC[C@H](NC(=O)CC(c2ccc(F)c(F)c2)c2cn(CC3CCCCC3)c3ccccc23)CC1 (stereo partly drawn) [Compound 134, N-((1R,4R)-4-aminocyclohexyl)-3-(1-(cyclohexylmethyl)-1H-indol-3-yl)-3-(3,4-difluorophenyl)propanamide hydrochloride salt]
MIC [1]: 256 µg/mL | IC50 [2]: 19 µM | MIC [3]: 4 µg/mL

CCOP(=O)(NC1CCC(NC(=O)CC(c2cccc(C)c2)c2cn(CC3CCCCC3)c3ccccc23)CC1)OCC (stereo not drawn) [Compound 226, diethyl ((1s,4s)-4-(3-(1-(cyclohexylmethyl)-1H-indol-3-yl)-3-(m-tolyl)propanamido)cyclohexyl) phosphoramidate]
MIC [1]: > 512 µg/mL | IC50 [2]: 28.5 µM | MIC [3]: 311 µg/mL (≈ 512 µM)

Cc1cccc(C(CC(=O)N[C@H]2CC[C@H](N)CC2)c2cn(C(C)C)c3ccccc23)c1.Cl (stereo partly drawn) [Compound 154, N-((1R,4R)-4-aminocyclohexyl)-3-(1-isopropyl-1H-indol-3-yl)-3-(m-tolyl)propanamide hydrochloride salt]
MIC [1]: 256 µg/mL | IC50 [2]: 1230 µM | MIC [3]: 128 µg/mL

Cc1cccc(-c2ccc3c(c2)c(CC(=O)N[C@H]2CC[C@H](N)CC2)cn3CC2CCCCC2)c1.Cl [Compound 209, N-((1R,4R)-4-aminocyclohexyl)-2-(1-(cyclohexylmethyl)-5-(m-tolyl)-1H-indol-3-yl)acetamide hydrochloride salt]
MIC [1]: 63 µg/mL | IC50 [2]: 5.4 µM | MIC [3]: 4 µg/mL

Cl.N[C@H]1CC[C@H](NC(=O)CC(c2cccnc2)c2cn(Cc3ccccc3)c3ccccc23)CC1 (stereo partly drawn) [Compound 99, N-((1R,4R)-4-aminocyclohexyl)-3-(1-benzyl-1H-indol-3-yl)-3-(pyridin-3-yl)propanamide hydrochloride salt]
MIC [1]: > 512 µg/mL | IC50 [2]: 18 µM | MIC [3]: 256 µg/mL

Cc1ccccc1-c1ccc2c(c1)c(CCN[C@H]1CC[C@H](N)CC1)cn2CC1CCCCC1 [Compound 244, (1R,4R)-N1-(2-(1-(cyclohexylmethyl)-5-(o-tolyl)-1H-indol-3-yl)ethyl)cyclohexane-1,4-diamine hydrochloride salt]
MIC [1]: 2 µg/mL | IC50 [2]: 14.7 µM | MIC [3]: 2 µg/mL

Cc1cccc(C(CC(=O)NC2CCC(N)CC2)c2cn(CC3CCCCC3)c3ccc(C4=CCNCC4)cc23)c1 [Compound 228, N-((1S,4S)-4-aminocyclohexyl)-3-(1-(cyclohexylmethyl)-5-(1,2,3,6-tetrahydropyridin-4-yl)-1H-indol-3-yl)-3-(m-tolyl)propanamide hydrochloride salt]
MIC [1]: 40 µg/mL | IC50 [2]: 57 µM | MIC [3]: 10 µg/mL

CN(C)CCNC(=O)CC(c1cn(CC2CCCCC2)c2ccccc12)C1CCNCC1 (stereo not drawn) [Compound 108, 3-(1-(cyclohexylmethyl)-1H-indol-3-yl)-N-(2-(dimethylamino)ethyl)-3-(piperidin-4-yl) propanamide hydrochloride salt]
MIC [1]: > 512 µg/mL | IC50 [2]: 2080 µM | MIC [3]: > 512 µg/mL

Cc1cccc(C(CC(=O)N[C@H]2CC[C@@H](N)CC2)c2cn(Cc3ccccc3)c3ncccc23)c1.Cl (stereo partly drawn) [Compound 41, N-((1s,4s)-4-aminocyclohexyl)-3-(1-benzyl-1H-pyrrolo[2,3-b]pyridin-3-yl)-3-(m-tolyl)propanamide hydrochloride salt]
MIC [1]: > 512 µg/mL | IC50 [2]: 980 µM | MIC [3]: 258 µg/mL

Cc1cccc(C(CC(=O)NC2CCNCC2)c2cn(CC3CCCCC3)c3ccccc23)c1.Cl (stereo not drawn) [Compound 89, 3-(1-(cyclohexylmethyl)-1H-indol-3-yl)-N-(piperidin-4-yl)-3-(m-tolyl)propanamide hydrochloride salt]
MIC [1]: 32 µg/mL | IC50 [2]: 37 µM | MIC [3]: 8 µg/mL

Cc1cccc(C(CC(=O)NC2CCC(N)CC2)c2cn(CC3CCCCCC3)c3ccccc23)c1.Cl [Compound 238, N-((1S,4S)-4-aminocyclohexyl)-3-(1-(cycloheptylmethyl)-1H-indol-3-yl)-3-(m-tolyl)propanamide hydrochloride salt]
MIC [1]: > 512 µg/mL | IC50 [2]: 9.2 µM | MIC [3]: 4 µg/mL

Cc1cccc(C(CC(=O)NC2CCC(N)CC2)c2cn(CC3CCCCC3)c3cc(Br)ccc23)c1 [Compound 222, N-((1S,4S)-4-aminocyclohexyl)-3-(6-bromo-1-(cyclohexylmethyl)-1H-indol-3-yl)-3-(m-tolyl)propanamide hydrochloride salt]
MIC [1]: 5 µg/mL | IC50 ([2]; hydrochloride salt): 5.7 µM | MIC [3]: 5 µg/mL

Cc1cccc(C(CC(=O)NC2CCC(C(=O)NO)CC2)c2cn(CC3CCCCC3)c3ccccc23)c1 [Compound 247, (1S,4S)-4-(3-(1-(cyclohexylmethyl)-1H-indol-3-yl)-3-(m-tolyl)propanamido)-N-hydroxycyclohexane-1-carboxamide hydrochloride salt]
MIC [1]: > 512 µg/mL | RNase P Inhibition IC50 [2]: Ni | MIC [3]: > 512 µg/mL

Cl.N[C@H]1CC[C@H](NCCC(c2cn(CC3CCCCC3)c3ccccc23)C2CCCCC2)CC1 (stereo partly drawn) [Compound 204, (1rR4R)-N1-(3-cyclohexyl-3-(1-(cyclohexylmethyl)-1H-indol-3-yl)propyl) cyclohexane-1,4-diamine hydrochloride salt]
MIC [1]: 4 µg/mL | IC50 [2]: 50 µM | MIC [3]: 2 µg/mL

Cl.N[C@H]1CC[C@H](NC(=O)CC(c2cccnc2)c2cn(CC3CCCCC3)c3ccccc23)CC1 (stereo partly drawn) [Compound 138, N-((1R,4R)-4-aminocyclohexyl)-3-(1-(cyclohexylmethyl)-1H-indol-3-yl)-3-(pyridin-3-yl)propanamide hydrochloride salt]
MIC [1]: 128 µg/mL | IC50 [2]: 95 µM | MIC [3]: 64 µg/mL

NC1CCC(NCCC(c2cccc(F)c2)c2cn(CC3CCCCC3)c3ccccc23)CC1 [Compound 172, (1S,4S)-N1-(3-(1-(cyclohexylmethyl)-1H-indol-3-yl)-3-(3-fluorophenyl)propyl) cyclohexane-1,4-diamine hydrochloride salt]
MIC [1]: 4 µg/mL | IC50 [2]: 10 µM | MIC [3]: 4 µg/mL

From patent US20210246115A1 (Bioimics AB, priority 2017, published 2021)
